Assay results taken from patent US6852751B2, “Difluorobutyric acid metalloprotease inhibitors” (The Procter & Gamble Company, priority 2000, dated 2005).

Tested on: human subject suffering from rheumatoid arthritis
Experiment: Treatment of a human subject with rheumatoid arthritis, oral tablets (Example A)
Format: in vivo
Settings: tablet with 15 mg compound, three tablets per day orally for 2 years
Protocol: A tablet composition for oral administration, according to the present invention, is made comprising:
A human subject weighing 60 kg (132 lbs), suffering from rheumatoid arthritis, is treated by a method of this invention. Specifically, for 2 years, a regimen of three tablets per day is administered orally to said subject.

COc1ccc(-c2ccc(C(F)(F)CCC(=O)O)cc2)cc1 [Example 1, 4,4-Difluoro-4-(4′-methoxy-biphenyl-4-yl)-butyric Acid]
examination at the end of the treatment period: inflammation, mobility, pain: reduced inflammation and improved mobility without concomitant pain
